{"source": "patent US12570994B2", "about": "“Plants having increased tolerance to herbicides” (BASF AGRO B.V., priority 2010, dated 2026)", "key": {"[1]": {"biological_target": "amino acid substituted PPO enzyme R128A (Amaranthus tuberculatus, UniProt Q0NZW9, R128A)", "experiment": "biochemical"}, "[2]": {"biological_target": "amino acid substituted PPO enzyme R128L (Amaranthus tuberculatus, UniProt Q0NZW9, R128L)", "experiment": "biochemical"}, "[3]": {"biological_target": "amino acid substituted PPO enzyme dG210 (Amaranthus tuberculatus, UniProt Q0NZW9, DEL211-211, form not given)", "assay_type": "biochemical"}, "[4]": {"biological_target": "amino acid substituted PPO enzyme L397D (Amaranthus tuberculatus, UniProt Q0NZW9, L397D)", "experiment": "biochemical"}, "[5]": {"biological_target": "amino acid substituted PPO enzyme L397N (Amaranthus tuberculatus, UniProt Q0NZW9, L397N)", "experiment": "biochemical"}, "[6]": {"biological_target": "amino acid substituted PPO enzyme F420M (Amaranthus tuberculatus, UniProt Q0NZW9, F420M)", "experiment": "biochemical"}, "[7]": {"biological_target": "amino acid substituted PPO enzyme F420I (Amaranthus tuberculatus, UniProt Q0NZW9, F420I)", "experiment": "biochemical"}, "[8]": {"biological_target": "amino acid substituted PPO enzyme F420L (Amaranthus tuberculatus, UniProt Q0NZW9, F420L)", "experiment": "biochemical"}, "[9]": {"biological_target": "amino acid substituted PPO enzyme F420V (Amaranthus tuberculatus, UniProt Q0NZW9, F420V)", "experiment": "biochemical"}, "[10]": {"biological_target": "amino acid substituted PPO enzyme R128A, F420M (Amaranthus tuberculatus, UniProt Q0NZW9, F420M/R128A)", "experiment": "biochemical"}, "[11]": {"biological_target": "amino acid substituted PPO enzyme R128A, F420I (Amaranthus tuberculatus, UniProt Q0NZW9, F420I/R128A)", "experiment": "biochemical"}, "[12]": {"biological_target": "amino acid substituted PPO enzyme R128A, F420L (Amaranthus tuberculatus, UniProt Q0NZW9, F420L/R128A)", "experiment": "biochemical"}}, "data": [{"smiles": "C#CCN1C(=O)C(F)(F)Oc2cc(F)c(-n3c(=O)n(C)c(=S)n(C)c3=O)cc21", "note": "[benzoxazinone 1.a.35]", "values": [{"measurement": "IC50", "setting": "[1]", "result": 0.14, "unit": "nM"}, {"measurement": "IC50", "setting": "[2]", "result": 0.773, "unit": "nM"}, {"measurement": "IC50", "setting": "[3]", "result": 2.12, "unit": "nM"}, {"measurement": "IC50", "setting": "[4]", "result": 0.272, "unit": "nM"}, {"measurement": "IC50", "setting": "[5]", "result": 0.235, "unit": "nM"}, {"measurement": "IC50", "setting": "[6]", "result": 0.275, "unit": "nM"}, {"measurement": "IC50", "setting": "[7]", "result": 0.495, "unit": "nM"}, {"measurement": "IC50", "setting": "[8]", "result": 0.993, "unit": "nM"}, {"measurement": "IC50", "setting": "[9]", "result": 2.45, "unit": "nM"}, {"measurement": "IC50", "setting": "[10]", "result": 6.24, "unit": "nM"}, {"measurement": "IC50", "setting": "[11]", "result": 19.8, "unit": "nM"}, {"measurement": "IC50", "setting": "[12]", "result": 23.8, "unit": "nM"}]}]}
